Assay results taken from ChEMBL document CHEMBL1125213 (J Med Chem, 1991).

Legend:
Adenosine A2 receptor [1] = target: T1, Adenosine A2 receptor (Rattus norvegicus, UniProt P29276+P30543); assay: Binding affinity against adenosine A2 receptor in rat striatum by using [3H]NECA as a radioligand; type: tissue-based
[2] = Hydrophobicity index; type: ADME
Adenosine receptor A1 = target: T2, Adenosine receptor A1 (Rattus norvegicus, UniProt P25099); assay: Binding affinity against adenosine A1 receptor in rat cortex by using [3H]- PIA as a radioligand; type: tissue-based
T2 sequence (P25099 whole entry): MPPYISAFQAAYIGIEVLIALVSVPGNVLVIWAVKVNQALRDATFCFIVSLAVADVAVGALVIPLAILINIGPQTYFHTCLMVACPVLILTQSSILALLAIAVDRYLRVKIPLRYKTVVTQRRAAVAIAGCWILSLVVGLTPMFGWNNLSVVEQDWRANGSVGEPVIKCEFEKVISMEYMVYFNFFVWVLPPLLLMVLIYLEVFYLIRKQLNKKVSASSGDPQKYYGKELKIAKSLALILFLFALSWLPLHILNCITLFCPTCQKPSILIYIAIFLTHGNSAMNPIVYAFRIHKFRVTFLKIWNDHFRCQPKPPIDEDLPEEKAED

Adenosine A2 receptor [3] = target: T1, Adenosine A2 receptor; assay: Tested for inhibition of rat PC12 adenylate cyclase stimulation by using NECA as a radioligand; type: cell-based; conditions: pc-12
[4] = target: Adenosine receptors; A1 & A2 (Rattus norvegicus) (UniProt P29276+P25099+P30543); assay: It is the ratio of Ki value of A1 receptor to that of A2 receptor.; type: protein assay
[5] = target: T3, Adenosine receptor A1 (Rattus norvegicus) (UniProt P25099); conditions: 100 uM
T3 sequence (whole entry): T2 sequence (P25099 whole entry)
Description: Inhibition of [3H]PIA binding to adenosine A1 receptor of rat cortex at 100 uM

Row | Ki (Adenosine A2 receptor [1]) [µM] | k' [2] | Ki (Adenosine receptor A1) [µM] | Ki (Adenosine A2 receptor [3]) [µM] | Selectivity ratio [4] | Inhibition [5] [%] | Compound
1 | 9.3 | 3.37 | 0.53 | 6.3 | 18 | – | Cn1cnc2c(NC3CCCC3)nc(Cl)nc21
2 | 79 | 3.91 | 8.7 | 47 | 9.1 | – | c1ccc(-n2cnc3c(NC4CCCC4)ncnc32)cc1
3 | 13 | – | – | 21 | 14 | – | Cn1cnc2c(NC3CCCCC3)ncnc21
4 | 47 | 0.68 | 3.3 | 27 | 14 | – | OCCn1cnc2c(NC3CCCC3)ncnc21
5 | 68 | – | 6.9 | 107 | 9.9 | – | Cn1cnc2c(Nc3ccccc3)ncnc21
6 | 11 | – | 2 | 8.5 | 5.5 | – | CCn1cnc2c(NC3CCCCC3)ncnc21
7 | 11 | 0.22 | 23 | 16 | 0.48 | – | Cn1cnc2c(N)nc(Cl)nc21
8 | 18 | – | 7.2 | 9.9 | 2.5 | – | CC[C@H](Nc1ncnc2c1ncn2-c1ccccc1)c1ccccc1
9 | 8.2 | 1.94 | 1.8 | 3.4 | 4.6 | – | Nc1ncnc2c1ncn2C1CCCC1
10 | 11 | 1.29 | – | 25 | 26 | – | Cn1cnc2c(NC3CCCC3)ncnc21
11 | 17 | 1.66 | – | 10.3 | 39 | – | CCn1cnc2c(NC3CCCC3)ncnc21
12 | 23 | 0.21 | – | 2.4 | 0.82 | – | Nc1ncnc2c1ncn2C1CCCO1 (stereo not given)
13 | 15 | – | 4.7 | 11 | 3.2 | – | CC[C@@H](Nc1ncnc2c1ncn2-c1ccccc1)c1ccccc1
14 | 8.8 | 0.39 | – | 5.6 | 0.19 | – | CCn1cnc2c(N)ncnc21
15 | 38 | 0.56 | 19 | 74 | 2 | – | Nc1ncnc2c1ncn2-c1ccccc1
16 | 46 | 0.04 | > 100 | 12 | < 0.5 | 30 | Nc1ncnc2c1ncn2CCO
17 | 111 | – | 6.9 | 50 | 16 | – | c1ccc(Nc2ncnc3c2ncn3-c2ccccc2)cc1
18 | 15 | 0.11 | 69 | 24 | 0.22 | – | Cn1cnc2c(N)ncnc21
19 | 31 | – | 7 | 21 | 4.4 | – | Cn1cnc2c(Nc3ccccc3)nc(Cl)nc21
20 | 12 | – | 2.8 | 17 | 4.3 | – | CC[C@H](Nc1nc(Cl)nc2c1ncn2C)c1ccccc1
21 | 19 | 4.99 | 1.2 | 5.1 | 16 | – | c1nc(NC2CCCC2)c2ncn(C3CCCC3)c2n1
22 | 6.8 | – | 3.3 | 4.3 | 2.1 | – | CC[C@@H](Nc1nc(Cl)nc2c1ncn2C)c1ccccc1
23 | 39 | 1.81 | 1.7 | 30 | 23 | – | c1nc(NC2CCCC2)c2ncn(C3CCCO3)c2n1 (stereo not given)

Row | Compound | Ki (Adenosine A2 receptor [1]) [µM] | k' [2] | Ki (Adenosine receptor A1) [µM] | Ki (Adenosine A2 receptor [3]) [µM] | Selectivity ratio [4] | Inhibition [5] [%]
24 | CC[C@H](Nc1ncnc2c1ncn2C)c1ccccc1.Cl | 84 | – | 11 | 74 | 7.6 | –
25 | CC[C@@H](Nc1ncnc2c1ncn2C)c1ccccc1.Cl | 55 | – | 2.5 | 25 | 22 | –
